# Test results published in patent US20230099367A1 (VERSITECH LIMITED, priority 2019, published 2023).
# Ends that are not written are not given here.
# Tests used:
# [1] = in vivo; cited from earlier work
# SCTR = target: T1, SCTR (Mus musculus, UniProt Q5FWI2); test: Ex vivo cAMP assay on isolated mouse tissues; design: species or system mice (C57); conditions: isolated C57 mouse tissues; secretin 1 μM, KSD179019 100 μM
# T1 construct: low expression levels of the intrinsic receptor; from tissue; host or cells: duodenum, pancreas, cerebellum and kidney of C57 mice
# Description: Various tissues were collected from C57 mice and were washed three times with ice-cold HBSS (Invitrogen). Tissues were minced and weighed equally into four parts. […] After drug treatment, the tissues were homogenized for measuring the concentration of the cAMP by the Lance cAMP assay kit.
# plasma vasopressin = test: Plasma vasopressin after intracerebroventricular injection; assay type: in vivo, C57 mice; conditions: i.c.v.; secretin 500 ng/5 μl, KSD179019 260 ng/5 μl; 0-60 min; vs ACSF
# Protocol: The complete protocol was performed as reported in our lab. Mice were implanted with the stainless-steel cannula with a projection to the lateral ventricular region (bregma: 0.5 mm, lateral: 1.0 mm and depth: 2.0 mm). The mice were allowed to recover for at least 5 days after the surgery. […] ACSF alone was used as a vehicle control. After drug treatment, blood was collected from the jugular vein at 0, 15, 30, 45 and 60 min. Plasma samples were collected from the whole blood by centrifugation at 4000×g for 10 min at 4° C. The samples were then used for the quantification of vasopressin by the help of ELISA using a commercial kit from (Phoenix Pharmaceuticals, Inc.) according to manufacturer instruction.
# blood pressure [2] = test: Blood pressure after intraperitoneal secretin (DSI telemetry); assay type: in vivo, C57 mice; conditions: secretin 0.5 μg/g BW intraperitoneal; 5 min post administration
# Protocol: The DSI telemetric device was implanted using the standardized protocol from our lab. Post recovery, blood pressure measurements, and drug administration were initiated. […] The heart rate and blood pressure were measured continually up to 150 min post-injection time.
# blood pressure [3] = test: Blood pressure in spontaneously hypertensive rats (DSI telemetry); assay type: in vivo, spontaneously hypertensive rat (SHR)
# Protocol: Anti-hypertensive action of KSD179019 was analyzed by continues monitoring of the blood pressure and heart rate on spontaneously hypertensive rat (SHR) by using DSI telemetric implantation. DSI device was surgically implanted using the methodology described before. […] We used conventional combination therapy i.e. Azilsartan (Az; 0.3 μg/g BW) and Chlorthalidone (CLT; 1 μg/g BW) for the comparison with […]. Az is an angiotensin II receptor antagonist and CLT is a diuretic compound. Both these compounds are commonly used in the treatment of hypertension either individually and in combination. The dosing of the combination of Az+CLT on SHR rats is used as documented in previous publications. For blood pressure monitoring, telemetric device by DSI was used, using the implantation methodology mentioned earlier.
# [4] = system: salmonella strains (TA98, TA100, TA1535 and TA1537) and combination of two E.coli strains (uvrA and pKM101); test: Ames test for mutagenicity (OECD-471)
# Protocol: In vitro and in vivo toxicity testing was performed. All these test were performed using the OECD guidelines. […] The MTT assay was performed on liver cells (HepG2 cell line) and kidney cells (HEK293 cell line) as they are the major organs effected by drug toxicity. […] Additionally, the potential carcinogenicity of this drug is tested according to OECD-471 (Ames test) using the commercially available kit from XENOMETRIX. The mutation effect of the drug was tested in salmonella strains (TA98, TA100, TA1535 and TA1537) and on the combination of two E.coli strains (uvrA and pKM101) (FIGS. 8a; 8b; 8c; 8d and 8e). […] Additionally, as the drug's secondary metabolite can also have carcinogenic effect, the Ames test was performed in presence of liver enzymes which can cause the formation of secondary metabolites (S9 liver extract) (FIGS. 9a; 9b; 9c; 9d and 9e). […] The animal testing was done under an animal license from the Laboratory Animal Unit (LAU) of the University of Hong Kong for testing at acute, sub-chronic and chronic levels of exposure. The study was done based on the OECD-423 guidelines. […] Major organs like brain, heart, liver, kidney, intestine, and colon were collected and analysed. […]
# In vitro and in vivo toxicity testing was performed. […] Major organs like brain, heart, liver, kidney, intestine, and colon were collected and analysed. […]
# human SCTR = target: T2, human SCTR (Homo sapiens, UniProt P47872); test: In vitro Lance cAMP assay in CHO cells overexpressing human SCTR; assay type: cell-based
# T2 construct: expressed in transfected cells; host or cells: CHO cells
# Protocol: As SCTR is known to have cAMP as the secondary messenger, therefore to study receptor activation, the concentration of cAMP is measured by the help of Lance cAMP assay using the assay kit from PerkinElmer, as per the standardized protocol in our lab. […] Additionally, the cells upon transfection were used for the extraction of total RNA (TriPure reagent, Invitrogen) to confirm the receptor's expression.
# The selected compounds were procured from TargetMol and chemicalbook.com. […] The five compounds were then used for analyzing their dose-dependent response on the SCTR to verify their effect on the receptor.
# [5] = Acute oral toxicity over 14 days (OECD-423), LD50 estimation; assay type: in vivo, C57BL/6J mice
# Protocol: In vitro and in vivo toxicity testing was performed. All these test were performed using the OECD guidelines. […] The MTT assay was performed on liver cells (HepG2 cell line) and kidney cells (HEK293 cell line) as they are the major organs effected by drug toxicity. […] Additionally, the potential carcinogenicity of this drug is tested according to OECD-471 (Ames test) using the commercially available kit from XENOMETRIX. The mutation effect of the drug was tested in salmonella strains (TA98, TA100, TA1535 and TA1537) and on the combination of two E.coli strains (uvrA and pKM101) (FIGS. 8a; 8b; 8c; 8d and 8e). […] Additionally, as the drug's secondary metabolite can also have carcinogenic effect, the Ames test was performed in presence of liver enzymes which can cause the formation of secondary metabolites (S9 liver extract) (FIGS. 9a; 9b; 9c; 9d and 9e). […] The animal testing was done under an animal license from the Laboratory Animal Unit (LAU) of the University of Hong Kong for testing at acute, sub-chronic and chronic levels of exposure. The study was done based on the OECD-423 guidelines. […] The test was done on 6 animals in two batches in both males and females. The body weight change remained under 2 grams (FIG. 11) which is normal growth for 9 weeks old C57BL/6J (https://www.jax.org/jax-mice-and-services/strain-data-sheet-pages/body-weight-chart-000664#). […] The animals were subjected to histological analysis post sacrificing on day 14. Major organs like brain, heart, liver, kidney, intestine, and colon were collected and analysed. […] However, in order to determine a dose for sub-chronic and chronic studies, according to OECD recommendations, 3 animals were administered 5000 mg/kg BW of drug in a single administration. […] During the 14 day observation the animals remained healthy with no change in body weight and body temperature (FIG. 13).
# In vitro and in vivo toxicity testing was performed. All tests were performed using the OECD guidelines. […] The MTT assay was performed on liver cells (HepG2 cell line) and kidney cells (HEK293 cell line) as they are the major organs effected by drug toxicity. […] Additionally, the potential carcinogenicity of this drug is tested according to OECD-471 (Ames test) using the commercially available kit from XENOMETRIX. The mutation effect of the drug was tested in salmonella strains (TA98, TA100, TA1535 and TA1537) and on the combination of two E.coli strains (uvrA and pKM101) (FIGS. 19a; 19b; 19c; 19d and 19e). […] Additionally, as the drug's secondary metabolite can also have carcinogenic effect, the Ames test was performed in presence of liver enzymes which can cause the formation of secondary metabolites (S9 liver extract) (FIGS. 20a; 20b; 20c; 20d and 20e). […] The animal testing was done under an animal license from the Laboratory Animal Unit (LAU) of the University of Hong Kong for testing at acute, sub-chronic and chronic levels of exposure. The study was done based on the OECD-423 guidelines. […] The test was done on 6 animals in two batches in both males and females. The body weight change remained under 2 grams (FIG. 21) which is normal growth for 9 weeks old C57BL/6J (https://www.jax.org/jax-mice-and-services/strain-data-sheet-pages/body-weight-chart-000664#). […] The animals were subjected to histological analysis post sacrificing on day 14. Major organs like brain, heart, liver, kidney, intestine, and colon were collected and analysed. […] However, in order to determine a dose for sub-chronic and chronic studies, according to OECD recommendations, 3 animals were administered 5000 mg/kg BW of drug in a single administration. […] During the 14 day observation the animals remained healthy with no change in body weight and body temperature (FIG. 23).
# [6] = 14 days after 2000 mg/kg BW oral
# T2 sequence (P47872 23-440): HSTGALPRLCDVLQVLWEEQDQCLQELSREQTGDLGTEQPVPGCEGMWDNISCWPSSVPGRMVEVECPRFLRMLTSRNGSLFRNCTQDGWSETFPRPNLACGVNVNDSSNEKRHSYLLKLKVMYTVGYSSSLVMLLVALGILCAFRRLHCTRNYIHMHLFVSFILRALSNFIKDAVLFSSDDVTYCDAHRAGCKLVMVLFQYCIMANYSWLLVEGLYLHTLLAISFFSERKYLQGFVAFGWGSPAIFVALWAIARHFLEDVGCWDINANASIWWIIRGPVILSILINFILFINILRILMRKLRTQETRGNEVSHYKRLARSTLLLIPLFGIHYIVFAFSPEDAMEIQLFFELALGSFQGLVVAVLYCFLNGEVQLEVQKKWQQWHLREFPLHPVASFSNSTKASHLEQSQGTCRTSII
# T1 sequence (Q5FWI2 29-447): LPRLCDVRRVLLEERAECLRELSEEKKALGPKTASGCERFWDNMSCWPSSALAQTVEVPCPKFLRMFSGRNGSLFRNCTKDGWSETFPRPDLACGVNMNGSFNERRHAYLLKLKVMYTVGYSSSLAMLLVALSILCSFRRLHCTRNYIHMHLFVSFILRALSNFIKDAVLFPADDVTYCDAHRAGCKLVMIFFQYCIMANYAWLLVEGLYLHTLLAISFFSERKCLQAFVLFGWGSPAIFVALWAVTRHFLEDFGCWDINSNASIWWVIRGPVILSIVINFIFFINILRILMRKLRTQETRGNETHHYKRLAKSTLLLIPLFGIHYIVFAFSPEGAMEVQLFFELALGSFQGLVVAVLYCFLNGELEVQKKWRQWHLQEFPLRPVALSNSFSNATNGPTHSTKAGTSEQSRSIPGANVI
compound,measurement,setting,value
"CC(C)C[C@H](NC(=O)CNC(=O)[C@H](CCC(N)=O)NC(=O)[C@H](CC(C)C)NC(=O)[C@H](CC(C)C)NC(=O)[C@H](CCCNC(=N)N)NC(=O)[C@H](CCC(N)=O)NC(=O)[C@H](CC(C)C)NC(=O)[C@H](CCCNC(=N)N)NC(=O)[C@H](C)NC(=O)CNC(=O)[C@H](CCC(=O)O)NC(=O)[C@H](CCCNC(=N)N)NC(=O)[C@H](CC(C)C)NC(=O)[C@H](CCCNC(=N)N)NC(=O)[C@H](CO)NC(=O)[C@H](CC(C)C)NC(=O)[C@H](CCC(=O)O)NC(=O)[C@H](CO)NC(=O)[C@@H](NC(=O)[C@H](Cc1ccccc1)NC(=O)[C@@H](NC(=O)CNC(=O)[C@H](CC(=O)O)NC(=O)[C@H](CO)NC(=O)[C@@H](N)Cc1c[nH]cn1)[C@@H](C)O)[C@@H](C)O)C(=O)N[C@H](C(N)=O)C(C)C [secretin, reference compound]",half-life in circulation,[1],approximately 2 min
same,"cAMP production from duodenum, cerebellum and pancreas",SCTR,able to stimulate cAMP production
same,plasma Vp (vasopressin) concentration,plasma vasopressin,significant increase in plasma Vp
same,systolic and diastolic blood pressure drop,blood pressure [2],blood pressure drop was significant
same,duration of blood pressure reduction,blood pressure [3]; intravenous injection of secretin peptide,approximately 10 min
"c1ccc2c(Oc3nc(Nc4ccc(N5CCOCC5)cc4)c4ncn(C5CCCCC5)c4n3)cccc2c1 [KSD179019, puromorphamine]","cAMP production from duodenum, cerebellum and pancreas",SCTR,able to stimulate cAMP production
same,plasma Vp (vasopressin) concentration,plasma vasopressin,significant increase in plasma Vp
same,"carcinogenic potential of drug or metabolites, Ames test",[4]; in presence of S9 liver extract,no carcinogenic potential
same,"mutation effect, Ames test",[4]; without S9 liver extract,No mutational effect
same,"hypotensive effect, times longer than combination therapy (Az and CLT)",blood pressure [3]; SHR rats,3 times
same,"hypotensive effect, times longer than secretin peptide",blood pressure [3]; SHR rats,360 times
same,time that reduction in blood pressure lasted significantly,"blood pressure [3]; SHR, 0.26 μg/g BW tail vein (FIG. 12C)",up to 20 hours
same,blood pressure reduction,"blood pressure [3]; SHR, 0.26 μg/g BW tail vein injection, vs saline",consistent blood pressure reduction
same,drop in blood pressure at peak,"blood pressure [3]; SHR, KSD179019, peaked at 40 hours",10%
same,reduction in mean arterial blood pressure,"blood pressure [3]; SHR, intravenous 0.26 μg/g BW, up to 60 hours post administration",approximately 10%
same,reduction of MABP,"blood pressure [3]; SHR, intravenous, at 40 and 60 hours (FIG. 13B, N=2)",10%
same,time window of statistically significant drops in diastolic and systolic blood pressure,"blood pressure [3]; SHR, oral 30, 50 and 80 mg/kg BW (FIG. 17)",20 to 50 h
same,time window of statistically significant drops in diastolic and systolic blood pressure,"blood pressure [3]; SHR, tail-vein 0.26 μg/g body weight (FIG. 16)",20 to 50 h
same,duration of hypotensive effect post administration,"blood pressure [3]; SHR, until blood pressure recovered / effect still observed",up to 60 hours
same,"efficacy, % of maximal cAMP (of secretin)","human SCTR; SCT with KSD179019 (100 μM), maximal cAMP by SCT at 1 μM",131.9%
same,cAMP concentration compared to basal level (agonist screening),"human SCTR; compound 100 μM, CHO cells overexpressing human SCTR",low but statistically significant increase in cAMP concentration
same,cAMP response together with secretin (antagonist screening),"human SCTR; compound (10 μM in FIG. 6 legend, 100 μM elsewhere in the source) with 1 μM secretin",potentiated the effect of secretin with significantly higher cAMP response
same,dose-dependent effect on secretin cAMP stimulation,human SCTR; different secretin concentrations plus KSD179019 100 μM,dose-dependent potentiation of secretin on cAMP stimulation
same,fatal or toxic effects,"[5]; 5000 mg/kg BW single administration, 14 day observation",no fatal or toxic effects were observed
same,overall health of animals,[5]; 14 day after single oral dose of 2000 mg/kg BW,no effect on the overall health of animals
same,body temperature,[5]; [6],remained constant
same,body weight change,[5]; [6],under 2 grams
same,histological analysis of major organs (necrosis),"[5]; day 14, brain, heart, liver, kidney, intestine, colon, 2000 mg/kg BW",None of these organs were observed to have any signs of necrosis
same,LD50,"[5]; single oral administration, male and female mice, estimated, no fatality at 2000 mg/kg BW",2000-5000 mg/kg BW
ChiRhoStim: synthetic secretin peptide analog,half-life in circulation,[1],45 min
"SecreFlo: synthetic secretin peptide analog (HSDGTFTSELSRLRDSARLQRLLQGLV; ends and bridges not checked; UniProt P63298 33-59, looked up)",half-life in circulation,[1],20 min
